Legend:
[1] = system: rat in which renal insufficiency was induced by adenine; test: Suppression of creatinine increase in adenine-induced renal insufficiency model rats; type: in vivo, Wistar-strain male rats
Text: Adenine was orally administered to Wistar-strain male rats of eight weeks age to prepare a renal insufficiency model. […] Further, a value of creatinine clearance (mL/kg/hr) decreased from 315.3±13.8 to 25.7±4.4 whereupon renal functions lowered to about one-tenth.
From the 7th to the 17th days from administration of adenine, the test drug was orally administered to the rat in which renal insufficiency was induced by adenine. The creatinine levels in blood before and after the administration of the test drug were compared whereupon a suppressive action of the test drug to an increase of creatinine accompanied by the progress of renal insufficiency was checked. In a control group where no test drug was administered, an increase of creatinine to an extent of 4.37±0.76 mg/dL was noted while, in a group to which (S)-(−)-5-hydroxy-1-methylhydantoin (200 mg/kg/day) was administered, an increase of creatinine was suppressed to an extent of 2.72±0.55 mg/dL.

[2] = Pharmacokinetics in blood (unchanged compound and metabolites in plasma) in renal insufficiency model rats; type: in vivo; conditions: 100 mg/kg oral once, 23rd day from administration of adenine; compared with R-form and racemate; FIG. 1 and FIG. 2
Protocol: After each 100 mg/kg of (S)-(−)-5-hydroxy-1-methylhydantoin, (R)-(+)-5-hydroxy-1-methylhydantoin, and racemate thereof was orally administered once to the above-mentioned model rats of renal insufficiency (on the 23rd day from administration of adenine), changes in concentration of an unchanged compound and metabolites (metabolite 1: 1-methylimidazolidintrion and metabolite 2: 5-methyloxaluric acid) in plasma were checked.

mice = test: Minimum doses for expression of general symptoms after single oral administration; type: in vivo
SD-strain rats = test: Acute toxicity test, single intravenous administration; type: in vivo; conditions: once administered intravenously, SD-strain rats 6 weeks age
Protocol: In an acute toxicity test where (±)-5-hydroxy-1-methylhydantoin was once administered intravenously to SD-strain rats (6 weeks age), there was no dead case even when the dose was 2,000 mg/kg, and so the lethal dose of the unchanged compound was presumed to be not less than 2,000 mg/kg. In the same toxicity test however, a lethal dose of the metabolite 1 was about 150 to 300 mg/kg. […] Furthermore, it was observed that the racemate caused the decrease of general symptoms such as passivity, tactile reaction, pain sensation reaction and ipsilateral flexor reaction at a dose of 200 mg/kg.

CN1C(=O)NC(=O)[C@@H]1O [S-form, (S)-(−)-5-hydroxy-1-methylhydantoin]
increase of creatinine in blood ([1]; 200 mg/kg/day oral, 7th to 17th days from administration of adenine, control group 4.37±0.76 mg/dL): 2.72 ± 0.55 mg/dL | suppressive action to renal insufficiency ([1]; adenine renal insufficiency rats, oral, compared with racemate): suppressive action to renal insufficiency the same as the racemate | conversion to metabolites (metabolite 1 and metabolite 2) in plasma [2]: rarely converted to its metabolites | dose causing decrease of general symptoms (passivity, tactile reaction, pain sensation reaction, ipsilateral flexor reaction) (mice; mouse, in vivo, po): 500 mg/kg

CN1C(=O)NC(=O)C1O (racemic) [racemate, (±)-5-hydroxy-1-methylhydantoin, reference compound]
lethal dose (SD-strain rats): not less than 2,000 mg/kg | dose causing decrease of general symptoms (passivity, tactile reaction, pain sensation reaction, ipsilateral flexor reaction) (mice; general symptoms observation, single oral administration to mice): 200 mg/kg

CN1C(=O)NC(=O)[C@H]1O [R-form, (R)-(+)-5-hydroxy-1-methylhydantoin]
dose for expression of general symptoms as compared with the S-form (mice; mouse, in vivo, po): one-fifth

CN1C(=O)NC(=O)C1=O [metabolite 1, 1-methylimidazolidintrion]
lethal dose (SD-strain rats): 150 to 300 mg/kg
